Like-named read-outs stand apart in the source and are kept apart here.
Columns and labels:
[1] = tested on: estrogen receptor preparations from rat uteri; experiment: Competitive 3H-estradiol binding, rat uterus cytosol; conditions: for RBA Rat Uterus: Table 2, 3H-estradiol as ligand
[2] = tested on: estrogen receptor preparations from rat prostates; experiment: Competitive 3H-estradiol binding, rat prostate cytosol; conditions: for RBA Rat Prostate: Table 2, 3H-estradiol as ligand; for binding affinity to estrogen receptor of rat prostates compared with rat uteri: qualitative comparison prostate ER versus uterus ER
[3] = tested on: hERβ; experiment: Relative binding affinity to hERβ (Kuiper et al.); parameters: species or system human; conditions: quotient of RBA hERβ / hERα
Source text: In this case, it is assumed that ERβ predominates in the rat prostates over ERα, and ERα predominates in rat uteri over ERβ.

[4] = tested on: hERβ; conditions: cited from earlier work
[5] = tested on: adult female rats; experiment: Dissociation of action ovary/uterus and pituitary gland: ovulation and uterus weight; assay type: in vivo, rat
Protocol: The studies with respect to the action on uterus growth and ovulation (indirect effect by influencing the secretion of pituitary gland hormones) are performed on adult female rats (body weight of 220-250 g). The substances are subcutaneously administered four times on four consecutive days. The first administration is carried out in the metestrus. One day after the last administration, the autopsy is carried out. The number of ovocytes in the tube (effect on the ovulation) as well as the uterus weight are determined.

[6] = tested on: hypophysectomized juvenile rats; experiment: Ovary study, ovary weight in hypophysectomized juvenile rats; assay type: in vivo, rat; conditions: 0.5 mg/animal/day s.c. over 4 days, compared with estradiol 0.1 mg/animal/day
Protocol: (§1) The substances were tested in vivo on hypophysectomized juvenile rats. In a modification of this operative method, a GnRH antagonist is administered to the animals. It is examined whether the substance stimulates follicular proliferation (maturation) in the ovary. The ovary weight is the measurement parameter.
(§2) In each case, five animals (body weight 40-50 g) are assigned randomly to the treatment groups. The animals are fed as much as they want with a standard diet (altromin) in Makrolon cages in air-conditioned rooms with a lighting program (10 hours of darkness, 14 hours of light) and are given acidified tap water to drink.
(§3) In both cases, the animals are sacrificed 24 hours after the last administration, and the ovary weight is determined.

[7] = tested on: GnRH antagonist-treated animals; experiment: Ovary study, ovary weight in GnRH antagonist (Cetrorelix)-treated juvenile rats; assay type: in vivo, rat
Protocol: as §1, §2, §3

[8] = Table 1, 3H-estradiol as ligand, estradiol = 100

Compound	RBA Rat Uterus [1]	RBA Rat Prostate [2]	binding affinity to estrogen receptor of rat prostates compared with rat uteri [2]	also measured
9α-(2′,2′-Difluorovinyl)-18a-homo-estra-1,3,5(10)-triene-3,16α-diol [Compound 5]	0.2	6	higher binding affinity to the estrogen receptor of rat prostates	
C[C@]12CCC(O)CC1=CC[C@@H]1[C@@H]2CC[C@]2(C)C(O)CC[C@@H]12 (some centres unmarked) [5-Androstene-diol, reference compound]				Rat uterus ER(RBA) [1, 8]: 0.1; ERβ/ERα [3]: 3; hERβ RBA* [4]: 17; Rat prost. ER(RBA) [2, 8]: 5; prost. ER/uterus ER ([2]; ratio of RBA rat prostate ER / rat uterus ER): 50
C=C[C@]12CC[C@]3(C)C[C@H](O)C[C@H]3[C@@H]1CCc1cc(O)ccc12 [Compound 1, 9α-Vinylestra-1,3,5(10)-triene-3,16α-diol]	1.2	100	higher binding affinity to the estrogen receptor of rat prostates	effect on ovulation and uterus weight ([5]; s.c. on four days, up to a dose of 0.4 mg/kg of body weight): does not exert any effect; increase in ovary weight [6]: comparable increase in ovary weight
C=C[C@]12CC[C@]3(C)[C@@H](F)[C@H](O)C[C@H]3[C@@H]1CCc1cc(O)ccc12 [Compound 2, 17β-Fluoro-9α-vinyl-estra-1,3,5(10)-triene-3,16α-diol]	2	200	higher binding affinity to the estrogen receptor of rat prostates	action on ovary weight (FIG. 1) ([7]; GnRH antagonist-treated animals, 0.1 and 0.3 mg/animal/day, compared with estradiol 1 mg/animal/day): same action as the dose of 1 mg/animal/day of estradiol; action on ovary weight, low dosages (FIG. 2) ([7]; combination with Cetrorelix, 0.01, 0.03 mg/animal/day): show an ovary action and can eliminate the antagonistic effect of Cetrorelix
C[C@]12CC[C@]3(C=C(F)F)c4ccc(O)cc4CC[C@H]3[C@@H]1C[C@@H](O)C2 [Compound 4, 9α-(2′,2′-Difluorovinyl)-estra-1,3,5(10)-triene-3,16α-diol]	0.2	4	higher binding affinity to the estrogen receptor of rat prostates	
C[C@]12CC[C@@H]3c4ccc(O)cc4CC[C@H]3[C@@H]1CC[C@@H]2O [Estradiol, reference compound]				ED50 of ovulation inhibition and increase in uterus weight ([5]; s.c. four times on four consecutive days): 0.004 mg/kg of body weight
C[C@]12CC[C@@H]3c4ccc(O)cc4CC[C@H]3[C@@H]1C[C@@H](O)[C@@H]2O [Estriol]				hERβ RBA* ([4]; relative binding affinity, estradiol = 100, cited from Kuiper et al.): 21

— patent US7414043B2, “9-α-substituted estratrienes as selectively active estrogens” (priority 2002, dated 2008)
